Assay results: ChEMBL document CHEMBL3997792, “Identification of the First Selective Activin Receptor-Like Kinase 1 Inhibitor, a Reversible Version of L-783277” (J Med Chem, 2017)
Activity calls are given as the source filed them. No cut-off for these calls is given here.

Experiments:
[1] = target: T1, Activin receptor type-1-like (Mus musculus) (UniProt Q61288); assay: Inhibition of BMP9-stimulated ALK1 in mouse C2C12 cells assessed as reduction in Smad1/5 phosphorylation at 10 uM pretreated for 2 hrs followed by BMP9-stimulation after 30 mins by western blot analysis relative to control; assay type: cell-based
T1 sequence (whole entry): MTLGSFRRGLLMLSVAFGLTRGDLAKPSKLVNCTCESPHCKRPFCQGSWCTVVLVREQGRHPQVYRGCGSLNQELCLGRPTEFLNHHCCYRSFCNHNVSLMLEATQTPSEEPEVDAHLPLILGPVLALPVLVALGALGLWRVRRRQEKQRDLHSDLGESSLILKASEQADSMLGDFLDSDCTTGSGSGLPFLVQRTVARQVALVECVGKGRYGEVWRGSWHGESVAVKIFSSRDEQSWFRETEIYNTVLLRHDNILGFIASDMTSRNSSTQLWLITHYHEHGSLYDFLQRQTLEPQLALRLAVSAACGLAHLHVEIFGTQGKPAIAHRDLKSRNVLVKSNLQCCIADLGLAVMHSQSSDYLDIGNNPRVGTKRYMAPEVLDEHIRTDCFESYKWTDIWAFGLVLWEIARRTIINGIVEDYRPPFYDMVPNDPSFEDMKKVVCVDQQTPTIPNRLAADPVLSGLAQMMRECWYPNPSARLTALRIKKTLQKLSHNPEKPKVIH

[2] = target: T2, Activin receptor type-1-like (Homo sapiens, UniProt P37023); assay: Inhibition of human ALK1 using casein as substrate in presence of [gamma-33P]-ATP by scintillation counting method
[3] = target: T3, TGF-beta receptor type-1 (Mus musculus, UniProt Q64729); assay: Inhibition of ALK5 in mouse C2C12 cells assessed as decrease in TGFbeta1-induced Smad1/5 phosphorylation at 0.1 uM by Western blot method; assay type: cell-based
T3 sequence (Q64729 whole entry): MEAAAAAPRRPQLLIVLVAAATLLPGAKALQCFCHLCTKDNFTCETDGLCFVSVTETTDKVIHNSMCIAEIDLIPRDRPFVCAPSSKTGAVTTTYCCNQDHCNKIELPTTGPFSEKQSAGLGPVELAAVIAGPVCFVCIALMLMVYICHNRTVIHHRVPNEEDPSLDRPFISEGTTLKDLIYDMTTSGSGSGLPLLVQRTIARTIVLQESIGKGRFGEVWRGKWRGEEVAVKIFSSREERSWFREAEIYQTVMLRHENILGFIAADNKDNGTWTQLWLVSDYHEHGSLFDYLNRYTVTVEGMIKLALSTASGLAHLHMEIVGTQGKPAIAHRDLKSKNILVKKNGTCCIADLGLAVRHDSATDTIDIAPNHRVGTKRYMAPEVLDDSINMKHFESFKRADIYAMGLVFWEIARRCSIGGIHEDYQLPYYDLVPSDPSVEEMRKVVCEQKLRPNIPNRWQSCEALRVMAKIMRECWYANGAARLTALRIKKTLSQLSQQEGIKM

[4] = target: T2, Activin receptor type-1-like; assay: Inhibition of human ALK1 at 10 uM using casein as substrate in presence of [gamma-33P]-ATP by scintillation counting method relative to control

T2 sequence (P37023 whole entry): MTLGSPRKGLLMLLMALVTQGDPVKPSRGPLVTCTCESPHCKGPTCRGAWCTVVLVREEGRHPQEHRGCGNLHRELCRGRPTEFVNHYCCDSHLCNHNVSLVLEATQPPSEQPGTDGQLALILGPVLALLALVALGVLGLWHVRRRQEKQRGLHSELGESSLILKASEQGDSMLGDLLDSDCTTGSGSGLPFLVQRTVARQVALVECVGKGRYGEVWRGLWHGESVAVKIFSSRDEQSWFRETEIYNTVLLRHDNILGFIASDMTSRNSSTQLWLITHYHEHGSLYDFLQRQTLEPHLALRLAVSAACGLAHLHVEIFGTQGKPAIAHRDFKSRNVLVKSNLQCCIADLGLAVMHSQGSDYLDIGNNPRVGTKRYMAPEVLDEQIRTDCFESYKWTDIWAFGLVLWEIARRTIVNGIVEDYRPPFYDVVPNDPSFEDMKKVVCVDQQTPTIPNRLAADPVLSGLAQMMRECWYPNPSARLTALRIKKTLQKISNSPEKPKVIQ

inhibition [1] | IC50 [2] [µM] | inhibition (INH) [3] | inhibition [4] [%] | SMILES
70 to 80% | 0.77 |  |  | COc1cc(O)c2c(c1)CCC[C@H](O)[C@H](O)[C@@H](O)CCC[C@H](C)OC2=O
 |  | Active |  | c1ccc2c(-c3cnn4cc(-c5ccc(N6CCNCC6)cc5)cnc34)ccnc2c1
inactive |  |  | < 40 | COc1cc(O)c2c(c1)CCC[C@H](O)[C@H](O)C(=O)NCC[C@H](C)OC2=O
70 to 80% | 1.26 |  |  | C=C1CCC[C@H](C)OC(=O)c2c(O)cc(OC)cc2CCC[C@H](O)[C@@H]1O
